# Laboratory results from US20240316146A1, “METHODS OF REDUCING NEUROPATHY AND NEUROPATHIC SYMPTOMS AND TREATING CANCER” (Bexion Pharmaceuticals Inc., priority 2021, published 2024).
# System: A549 tumor spheroids with PBMCs
# Experiment: 3D-tumor spheroid T-cell killing model (Incucyte)
# Format: cell-based, human
# Conditions: BXQ-350 1.3 nM to 2.8 μM or Pembrolizumab 50 μg/ml; PBMCs with activation cocktail; day 6
# Protocol: A549 human lung cancer cells, transfected with a lentivirus, were seeded in 96-wells ultra-low attachment plates at a concentration of 750 cells/well. The plates were then centrifuged at 1200 rpm for 2 min, to promote agglomeration of the cells and formation of spheroids. The plates then were incubated for three days at 37° C. After three days, freshly isolated human peripheral blood mononuclear cells (PBMCs) were added to the spheroids at a concentration of 10,000 PBMCs/well. To various wells were added one or more of: an activation cocktail containing an anti-CD3 antibody at a final concentration of 1 ng/ml and IL-12 at a final concentration of 10 ng/ml; BXQ-350 in serial dilutions from 25 μM to 1.27 nM; a positive control of Pembrolizumab at 50 μg/ml. A negative control group had no additions to the spheroids and PBMCs. The final volume of each well was then adjusted to 200 μL per well.
# Plates were then left to incubate for an additional 30 minutes before being placed in the Incucyte® live cells analyzer; fluorescence was analyzed every 4 hours for 6 days. Images were then analyzed using the Incucyte® software to determine the IC50. Increased fluorescence intensity in A549 tumor cell spheroids correlates to an increased number of live Luc-A549 cells in the spheroids, and a lack of fluorescence denotes cell death.
substance,measurement,value
Pembrolizumab: positive control at 50 μg/ml in the spheroid model,cell death of spheroids (in words),increased cell death by day 6
